Values after ≈ are worked out from the molar mass of the structure shown. Like-named read-outs stand apart in the source and are kept apart here.
Tests used:
[1] = test system: Streptococcus pneumoniae 6303 (PRSP); assay: microbe, parasite or virus in culture; type: cell-based; settings: 24 h, read-out: Minimum Inhibitory Concentration, MIC
[2] = test system: Enterococcus fecal F631 (VRE); assay: organism not typed; type: cell-based; settings: 24 h, read-out: Minimum Inhibitory Concentration, MIC
green Streptococcus 1009 = assay: microbe, parasite or virus in culture; type: cell-based; settings: 37° C., 24 h, read-out: Minimum Inhibitory Concentration, MIC
[3] = test system: Enterococcus faecalis 51299; assay: microbe, parasite or virus in culture; type: cell-based; settings: Enterococcus faecalis, 51299, 24 h, read-out: Minimum Inhibitory Concentration, MIC
[4] = test system: Enterococcus faecalis 1513 (VRE); assay: microbe, parasite or virus in culture; type: cell-based; settings: 24 h, read-out: Minimum Inhibitory Concentration, MIC
[5] = test system: Enterococcus faecalis 29212; assay: microbe, parasite or virus in culture; type: cell-based; settings: 37° C., 24 h, read-out: Minimum Inhibitory Concentration, MIC
[6] = test system: Streptococcus bovis 10035; assay: microbe, parasite or virus in culture; type: cell-based; settings: Streptococcus equinus, 37° C., 24 h, read-out: Minimum Inhibitory Concentration, MIC
Clostridium tetani = assay: microbe, parasite or virus in culture; type: cell-based; settings: 24 h
[7] = test system: Streptococcus pneumoniae 10351; assay: microbe, parasite or virus in culture; type: cell-based; settings: 37° C., 24 h, read-out: Minimum Inhibitory Concentration, MIC
Oral candidiasis = assay: MIC broth microdilution; type: cell-based; settings: Microorganism 32, Oral candidiasis; 37° C., 24 h; read-out: Minimum Inhibitory Concentration, MIC
MIC broth microdilution = type: cell-based; settings: Microorganism 33, Dermatophytosis; 37° C., 24 h; read-out: Minimum Inhibitory Concentration, MIC
[8] = test system: Streptococcus pneumoniae M2; assay: microbe, parasite or virus in culture; type: cell-based; settings: 37° C., 24 h, read-out: Minimum Inhibitory Concentration, MIC
[9] = test system: Streptococcus pneumoniae 6301; assay: microbe, parasite or virus in culture; type: cell-based; settings: 37° C., 24 h, read-out: Minimum Inhibitory Concentration, MIC
[10] = test system: Corynebacterium diphtheriae; assay: microbe, parasite or virus in culture; type: cell-based; settings: 37° C., 24 h, read-out: Minimum Inhibitory Concentration, MIC
[11] = test system: Enterococcus faecalis 19433; assay: microbe, parasite or virus in culture; type: cell-based; settings: 37° C., 24 h, read-out: Minimum Inhibitory Concentration, MIC
[12] = test system: Enterococcus faecalis 583 (VRE); assay: microbe, parasite or virus in culture; type: cell-based; settings: 24 h, read-out: Minimum Inhibitory Concentration, MIC
[13] = test system: Enterococcus faecalis F2518 (VRE); assay: microbe, parasite or virus in culture; type: cell-based; settings: 24 h, read-out: Minimum Inhibitory Concentration, MIC
Bacillus cereus 2 = assay: microbe, parasite or virus in culture; type: cell-based; settings: 37° C., 24 h, read-out: Minimum Inhibitory Concentration, MIC
[14] = test system: Staphylococcus aureus 705 (MRSA); assay: microbe, parasite or virus in culture; type: cell-based; settings: 24 h, read-out: Minimum Inhibitory Concentration, MIC
Pyogenic Streptococcus = assay: microbe, parasite or virus in culture; type: cell-based; settings: 37° C., 24 h, read-out: Minimum Inhibitory Concentration, MIC
[15] = test system: Staphylococcus aureus 703 (MRSA); assay: microbe, parasite or virus in culture; type: cell-based; settings: 24 h, read-out: Minimum Inhibitory Concentration, MIC
Clostridium perfringens = assay: microbe, parasite or virus in culture; type: cell-based; settings: 24 h, read-out: Minimum Inhibitory Concentration, MIC
[16] = test system: Streptococcus pneumoniae 62; assay: microbe, parasite or virus in culture; type: cell-based; settings: 37° C., 24 h, read-out: Minimum Inhibitory Concentration, MIC
Streptococcus 10342 = assay: MIC broth microdilution; type: cell-based; settings: 37° C., 24 h, read-out: Minimum Inhibitory Concentration, MIC
[17] = test system: Staphylococcus aureus 43300 (MRSA); assay: microbe, parasite or virus in culture; type: cell-based; settings: 24 h, read-out: Minimum Inhibitory Concentration, MIC
Bacillus cereus 246 = assay: microbe, parasite or virus in culture; type: cell-based; settings: 37° C., 24 h, read-out: Minimum Inhibitory Concentration, MIC
[18] = test system: Staphylococcus aureus 29231; assay: microbe, parasite or virus in culture; type: cell-based; settings: 37° C., 24 h, read-out: Minimum Inhibitory Concentration, MIC
Bacillus subtilis 82 = assay: microbe, parasite or virus in culture; type: cell-based; settings: 37° C., 24 h, read-out: Minimum Inhibitory Concentration, MIC
Bacillus subtilis 168 = assay: microbe, parasite or virus in culture; type: cell-based; settings: 37° C., 24 h, read-out: Minimum Inhibitory Concentration, MIC
Bacillus anthracis 1 = assay: microbe, parasite or virus in culture; type: cell-based; settings: Bacillus anthracis, 1, 24 h, read-out: Minimum Inhibitory Concentration, MIC
[19] = test system: Streptococcus agalactiae B; assay: microbe, parasite or virus in culture; type: cell-based; settings: 37° C., 24 h, read-out: Minimum Inhibitory Concentration, MIC
[20] = test system: Staphylococcus aureus 704 (MRSA); assay: microbe, parasite or virus in culture; type: cell-based; settings: 24 h, read-out: Minimum Inhibitory Concentration, MIC
MRSA 2152 = assay: Antibacterial studies in vivo, survival of mice infected with MRSA 2152; settings: dose mg/kg: ciprofloxacin 20, 3: 30, 7: 40, 21: 50, 33: 25, 70: 70
Gram-positive Bacteria = type: cell-based; settings: the majority of Bacillus cereus, Bacillus subtilis and Enterococcus faecalis
[21] = read-out: Minimum Inhibitory Concentration, MIC, Microorganism 29, Clostridium tetani, 37° C.
[22] = read-out: Minimum Inhibitory Concentration, MIC, Microorganism 30, Clostridium tetani (second line of that name), 37° C.

Compound | MIC [1] [µM] | MIC [2] [µM] | MIC (green Streptococcus 1009) [µM] | MIC [3] [µM] | MIC [4] [µM] | MIC [5] [µM] | MIC [6] [µM] | MIC (Clostridium tetani; [21]) [µM] | MIC (Clostridium tetani; [22]) [µM] | MIC [7] [µM] | MIC (Oral candidiasis) [µM] | MIC (MIC broth microdilution) [µM] | MIC [8] [µM] | MIC [9] [µM] | MIC [10] [µM] | MIC [11] [µM] | MIC [12] [µM] | MIC [13] [µM] | MIC (Bacillus cereus 2) [µM] | MIC [14] [µM] | other results
CCc1nn2c(=O)c(C)c(-c3ccc(C(F)(F)F)cc3)[nH]c2c1-c1ccc(Cl)cc1Cl [Compound 23] | 231 (≈ 108 µg/mL) | 80.5 (≈ 37.5 µg/mL) | 210 (≈ 98.1 µg/mL) | 130 (≈ 60.8 µg/mL) | 152 (≈ 71 µg/mL) | 220 (≈ 103 µg/mL) | 153 (≈ 71.3 µg/mL) | 80.2 (≈ 37.4 µg/mL) | 50.2 (≈ 23.4 µg/mL) | 155 (≈ 72.4 µg/mL) | 122 (≈ 56.9 µg/mL) | 56.1 (≈ 26.2 µg/mL) | 200 (≈ 93.4 µg/mL) | 170 (≈ 79.4 µg/mL) | 162 (≈ 75.3 µg/mL) | 140 (≈ 65.4 µg/mL) | 132 (≈ 61.3 µg/mL) | 215 (≈ 100 µg/mL) | 110 (≈ 51.5 µg/mL) | 150 (≈ 70 µg/mL) | MIC (Pyogenic Streptococcus): 231 µM (≈ 108 µg/mL); MIC [15]: 131 µM (≈ 60.9 µg/mL); MIC (Clostridium perfringens): 30.6 µM (≈ 14.3 µg/mL); MIC [16]: 160 µM (≈ 74.8 µg/mL); MIC (Streptococcus 10342): 123 µM (≈ 57.4 µg/mL); MIC [17]: 120 µM (≈ 56.2 µg/mL); MIC (Bacillus cereus 246): 200 µM (≈ 93.4 µg/mL); MIC [18]: 282 µM (≈ 131 µg/mL); MIC (Bacillus subtilis 82): 110 µM (≈ 51.4 µg/mL); MIC (Bacillus subtilis 168): 101 µM (≈ 47.2 µg/mL); MIC (Bacillus anthracis 1): 166 µM (≈ 77.6 µg/mL); MIC [19]: 200 µM (≈ 93.5 µg/mL); MIC [20]: 180 µM (≈ 84 µg/mL)
Cc1nn2c(=O)c(C)c(-c3ccc(C#N)cc3)[nH]c2c1-c1ccc(C(F)(F)F)cc1 [Compound 33] | 1.3 (≈ 0.531 µg/mL) | 0.63 (≈ 0.257 µg/mL) | 0.3 (≈ 0.123 µg/mL) | 2.5 (≈ 1.02 µg/mL) | 5 (≈ 2.04 µg/mL) | 2.5 (≈ 1.02 µg/mL) | 10.5 (≈ 4.29 µg/mL) | 60.3 (≈ 24.6 µg/mL) | 50.6 (≈ 20.7 µg/mL) | 0.04 (≈ 0.0163 µg/mL) | 126 (≈ 51.3 µg/mL) | 53.6 (≈ 21.9 µg/mL) | 1.25 (≈ 0.51 µg/mL) | 2.5 (≈ 1.02 µg/mL) | 80.3 (≈ 32.8 µg/mL) | 5 (≈ 2.04 µg/mL) | 2.5 (≈ 1.02 µg/mL) | 2.5 (≈ 1.02 µg/mL) | 1.25 (≈ 0.51 µg/mL) | 0.33 (≈ 0.135 µg/mL) | MIC (Pyogenic Streptococcus): 0.63 µM (≈ 0.257 µg/mL); MIC [15]: 0.42 µM (≈ 0.172 µg/mL); MIC (Clostridium perfringens): 31.2 µM (≈ 12.7 µg/mL); MIC [16]: 0.63 µM (≈ 0.257 µg/mL); Survival rate (%) (life prolongation rate) (MRSA 2152; (survival days of test group − blank group)/blank group ×100%, MRSA 2152 mice, tail vein): 169.2%; Survival (MRSA 2152; mice inoculated intraperitoneally with MRSA 2152, test compound by tail vein, repeated after six hours, saline 1.3 days): 3.5 days; MIC (Streptococcus 10342): 0.3 µM (≈ 0.123 µg/mL); MIC [17]: 0.55 µM (≈ 0.225 µg/mL); MIC (Bacillus cereus 246): 1.25 µM (≈ 0.51 µg/mL); MIC [18]: 0.63 µM (≈ 0.257 µg/mL); MIC (Bacillus subtilis 82): 0.31 µM (≈ 0.127 µg/mL); MIC (Bacillus subtilis 168): 1.25 µM (≈ 0.51 µg/mL); MIC (Bacillus anthracis 1): 35.6 µM (≈ 14.5 µg/mL); MIC [19]: 0.56 µM (≈ 0.229 µg/mL); MIC [20]: 0.28 µM (≈ 0.114 µg/mL)
O=C1C(c2ccccc2)C(O)=Nc2cc(-c3ccc(C(F)(F)F)cc3)nn21 (stereo not drawn) [Compound 42] | 203 (≈ 75.4 µg/mL) | 21.2 (≈ 7.87 µg/mL) | 1.25 (≈ 0.464 µg/mL) | 21.2 (≈ 7.87 µg/mL) | 20.1 (≈ 7.46 µg/mL) | 20.5 (≈ 7.61 µg/mL) | 1.28 (≈ 0.475 µg/mL) | 30.2 (≈ 11.2 µg/mL) | 80.3 (≈ 29.8 µg/mL) | 1.25 (≈ 0.464 µg/mL) | 21.3 (≈ 7.91 µg/mL) | 52.1 (≈ 19.3 µg/mL) | 0.02 (≈ 0.00743 µg/mL) | 0.23 (≈ 0.0854 µg/mL) | 32 (≈ 11.9 µg/mL) | 18.2 (≈ 6.76 µg/mL) | 30.3 (≈ 11.3 µg/mL) | 18.2 (≈ 6.76 µg/mL) | 0.25 (≈ 0.0928 µg/mL) | 180 (≈ 66.9 µg/mL) | inhibition of growth (conclusion from MICs) (Gram-positive Bacteria): significantly inhibited the growth; MIC (Pyogenic Streptococcus): 1.23 µM (≈ 0.457 µg/mL); MIC [15]: 172 µM (≈ 63.9 µg/mL); MIC (Clostridium perfringens): 2.01 µM (≈ 0.746 µg/mL); MIC [16]: 0.25 µM (≈ 0.0928 µg/mL); MIC (Streptococcus 10342): 15.5 µM (≈ 5.76 µg/mL); MIC [17]: 150 µM (≈ 55.8 µg/mL); MIC (Bacillus cereus 246): 0.23 µM (≈ 0.0854 µg/mL); MIC [18]: 0.28 µM (≈ 0.104 µg/mL); MIC (Bacillus subtilis 82): 0.02 µM (≈ 0.00743 µg/mL); MIC (Bacillus subtilis 168): 1.23 µM (≈ 0.457 µg/mL); MIC (Bacillus anthracis 1): 32.5 µM (≈ 12.1 µg/mL); MIC [19]: 0.55 µM (≈ 0.204 µg/mL); MIC [20]: 230 µM (≈ 85.5 µg/mL)
